Source: ChEMBL document CHEMBL1201862, “PubChem BioAssay data set” (2004)
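Dose response: 5 concentrations. Exposure: 48 h. Format: 96-well plates. Endpoint: linear interpolation; highest concentration if not reached. Abbreviation: GI50, concentration required for 50% inhibition of growth.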 Active and inactive are the calls of the source. No stated cut-off is given here; in the data, active = GI50 up to about 1.1 µM and inactive = higher.

Columns and labels:
Assay in all cases: NCI anticancer screen, dose series, 48 h
[1] = system: A549
[2] = system: ACHN
[3] = system: KM12
[4] = system: MDA-MB-231
[5] = system: MDA-MB-435
[6] = system: NCI-H460
[7] = system: NCI/ADR-RES
[8] = system: OVCAR-8
[9] = system: RPMI-8226
[10] = system: SF-295
[11] = system: SK-MEL-28
[12] = system: SK-MEL-2
[13] = system: SN12C
[14] = system: SNB-19
[15] = system: SNB-75
[16] = system: SW-620
[17] = system: T47D
[18] = system: TK-10
[19] = system: UACC-62
[20] = system: UO-31

Measured: GI50

N#CC1(Nc2ccc(-c3ccc(NC4(C#N)CCCC4)cc3)cc2)CCCC1
inactive: [1] > 100 µM | [2] 34.9 µM | [3] > 100 µM | [4] > 100 µM | [5] > 100 µM | [6] > 100 µM | [7] > 100 µM | [8] > 100 µM | [9] > 100 µM | [10] > 100 µM | [11] > 100 µM | [12] > 100 µM | [13] > 100 µM | [14] > 100 µM | [15] > 100 µM | [16] > 100 µM | [17] > 100 µM | [18] > 100 µM | [19] > 100 µM | [20] > 100 µM

O=C(O)Cc1ccccc1 [PHENYLACETIC ACID]
inactive: [1] > 100 µM | [2] > 100 µM | [3] > 100 µM | [4] > 100 µM | [5] > 100 µM | [6] > 100 µM | [7] > 100 µM | [8] > 100 µM | [9] > 100 µM | [10] 841 µM | [11] > 100 µM | [12] > 100 µM | [13] > 100 µM | [14] > 100 µM | [15] > 100 µM | [16] > 100 µM | [17] > 100 µM | [18] > 100 µM | [19] > 100 µM | [20] > 100 µM
